Reference: patent US20050090522A1 (priority 2001, published 2005)
Read-outs that look alike come from different tables or passages of the source.

Tested on: HIV-1
Experiment: HIV-1 single-round infectious luciferase reporter virus (pseudotype) assay in HeLa CD4 CCR5 cells
Type: cell-based
Procedure, shortened: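 Reporter pseudovirus produced in 293 cells infected HeLa cells expressing CD4/CCR5 at MOI ~0.01, with compound present at <10 μM final. Infection was quantified as luciferase luminescence after 72 h.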

[1] = Human immunodeficiency virus 1, HeLa-CD4/CCR5, read-out: EC50 Group from TABLE 1, HeLa CD4 CCR5 cells, single-round infectious luciferase reporter virus
[2] = Human immunodeficiency virus 1, HeLa-CD4/CCR5, read-out: EC50 Group from Table 1, Table 4, HeLa CD4 CCR5 cells, single-round luciferase reporter virus

| SMILES | EC50 [1] [nM] | EC50 [2] [nM] |
| --- | --- | --- |
| COc1cnc(-c2cnc(-c3nccs3)s2)c2[nH]cc(C(=O)C(=O)N3CCN(C(=O)c4ccccc4)CC3)c12 [Example 92, 1-benzoyl-4-[(4-methoxy-7-(2-(thiazol-2-yl)-thiazol-5-yl)-6-azaindol-3-yl)-oxoacetyl]piperazine] | < 1000 | – |
| COc1cnc(-c2cnc(SC)s2)c2[nH]cc(C(=O)C(=O)N3CCN(C(=O)c4ccccc4)CC3)c12 [Example 93, 1-benzoyl-4-[(4-methoxy-7-(2-methylthio-thiazol-5-yl)-6-azaindol-3-yl)-oxoacetyl]piperazine] | < 1000 | – |
| COc1cnc(-c2cnc(O)cn2)c2[nH]cc(C(=O)C(=O)N3CCN(C(=O)c4ccccc4)CC3)c12 [Example 97, 1-(benzoyl)-4-[(4-methoxy-7-(2-hydroxyl-pyrazin-5-yl)-6-azaindol-3-yl)-oxoacetyl]piperazine] | < 1000 | – |
| COc1cnc(-c2cc3ccccc3o2)c2[nH]cc(C(=O)C(=O)N3CCN(C(=O)c4ccccc4)CC3)c12 [Example 98] | < 1000 | – |
| COc1cnc(-c2cnc(NC(C)=O)cn2)c2[nH]cc(C(=O)C(=O)N3CCN(C(=O)c4ccccc4)CC3)c12 [Example 99, 1-(benzoyl)-4-[(4-methoxy-7-(2-acetylamino-pyrazin-5-yl)-6-azaindol-3-yl)-oxoacetyl]piperazine] | < 1000 | – |
| CNc1ncc(-c2ncc(OC)c3c(C(=O)C(=O)N4CCN(C(=O)c5ccccc5)CC4)c[nH]c23)nc1OC [Example 100, 1-benzoyl-4-[(4-methoxy-7-(2-methylamino-3-methoxy-pyrazin-5-yl)-6-azaindol-3-yl)-oxoacetyl]piperazine] | < 1000 | – |
| COc1nc(-c2ncc(OC)c3c(C(=O)C(=O)N4CCN(C(=O)c5ccccc5)CC4)c[nH]c23)cnc1N [Example 101, 1-benzoyl-4-[(4-methoxy-7-(2-amino-3-methoxy-pyrazin-5-yl)-6-azaindol-3-yl)-oxoacetyl]piperazine] | < 1000 | – |
| COc1cnc(-c2cnc(N(C)C)cn2)c2[nH]cc(C(=O)C(=O)N3CCN(C(=O)c4ccccn4)CC3)c12 [Example 103, 1-picolinoyl-4-[(4-methoxy-7-(2-dimethylamino-pyrazin-5-yl)-6-azaindol-3-yl)-oxoacetyl]piperazine] | < 1000 | – |
| COc1cnc(-c2cc3ccncc3o2)c2[nH]cc(C(=O)C(=O)N3CCN(C(=O)c4ccccc4)CC3)c12 [Example 104, 1-benzoyl-4-[(4-methoxy-7-(6-aza-benzofuran-2-yl)-6-azaindol-3-yl)-oxoacetyl]piperazine] | < 1000 | – |
| C[C@@H]1CN(C(=O)c2ccccn2)CCN1C(=O)C(=O)c1c[nH]c2c(-c3cnc(N(C)C)cn3)nccc12 [Example 105, (R)-1-picolinoyl-3-methyl-4-[(7-(2-dimethylamino-pyrazin-5-yl)-6-azaindol-3-yl)-oxoacetyl]piperazine] | < 1000 | – |
| C[C@H]1CN(C(=O)c2ccccn2)CCN1C(=O)C(=O)c1c[nH]c2c(-c3cnc(N(C)C)cn3)nccc12 [Example 106, (S)-1-picolinoyl-3-methyl-4-[(7-(2-dimethylamino-pyrazin-5-yl)-6-azaindol-3-yl)-oxoacetyl]piperazine] | < 1000 | – |
| C[C@@H]1CN(C(=O)c2ccccn2)CCN1C(=O)C(=O)c1c[nH]c2c(-c3cc4ccccc4o3)nccc12 [Example 107, (R)-1-picolinoyl-3-methyl-4-[(7-(benzofuran-2-yl)-6-azaindol-3-yl)-oxoacetyl]piperazine] | < 1000 | – |
| C[C@H]1CN(C(=O)c2ccccn2)CCN1C(=O)C(=O)c1c[nH]c2c(-c3cc4ccccc4o3)nccc12 [Example 108, (S)-1-picolinoyl-3-methyl-4-[(7-(benzofuran-2-yl)-6-azaindol-3-yl)-oxoacetyl]piperazine] | < 1000 | – |
| C[C@@H]1CN(C(=O)c2ccccn2)CCN1C(=O)C(=O)c1c[nH]c2c(-c3cncs3)nccc12 [Example 109, (R)-1-picolinoyl-3-methyl-4-[(7-(thiazol-5-yl)-6-azaindol-3-yl)-oxoacetyl]piperazine] | < 1000 | – |
| C[C@H]1CN(C(=O)c2ccccn2)CCN1C(=O)C(=O)c1c[nH]c2c(-c3cncs3)nccc12 [Example 110, (S)-1-picolinoyl-3-methyl-4-[(7-(thiazol-5-yl)-6-azaindol-3-yl)-oxoacetyl]piperazine] | < 1000 | – |
| C[C@@H]1CN(C(=O)c2ccccc2)CCN1C(=O)C(=O)c1c[nH]c2c(-c3cncc(N)n3)nccc12 [Example 111, (R)-1-benzoyl-3-methyl-4-[(7-(2-amino-pyrazin-6-yl)-6-azaindol-3-yl)-oxoacetyl]piperazine] | < 1000 | – |
| C[C@@H]1CN(C(=O)c2ccccc2)CCN1C(=O)C(=O)c1c[nH]c2c(-c3cccc(N)n3)nccc12 [Example 112, (R)-1-benzoyl-3-methyl-4-[(7-(2-amino-pyridin-6-yl)-6-azaindol-3-yl)-oxoacetyl]piperazine] | < 1000 | – |
| C[C@@H]1CN(C(=O)c2ccccc2)CCN1C(=O)C(=O)c1c[nH]c2c(-c3ccc(N)nc3)nccc12 [Example 113, (R)-1-benzoyl-3-methyl-4-[(7-(2-amino-pyridin-5-yl)-6-azaindol-3-yl)-oxoacetyl]piperazine] | < 1000 | – |
| C[C@@H]1CN(C(=O)c2ccccc2)CCN1C(=O)C(=O)c1c[nH]c2c(-c3ccc(N)cn3)nccc12 [Example 114, (R)-1-benzoyl-3-methyl-4-[(7-(5-amino-pyridin-2-yl)-6-azaindol-3-yl)-oxoacetyl]piperazine] | < 1000 | – |
| CNc1cnc(-c2ncc(OC)c3c(C(=O)C(=O)N4CCN(C(=O)c5ccccc5)CC4)c[nH]c23)cn1 [Example 115, 1-benzoyl-4-[(4-methoxy-7-(2-methylamino-pyrazin-5-yl)-6-azaindol-3-yl)-oxoacetyl]piperazine] | < 1000 | – |
| COc1cnc(-c2cnc(N3CCCC3=O)s2)c2[nH]cc(C(=O)C(=O)N3CCN(C(=O)c4ccccc4)CC3)c12 [Example 116, 1-benzoyl-4-[(4-methoxy-7-((2-pyrrolidinon-1-yl)-thiazol-5-yl)-6-azaindol-3-yl)-oxoacetyl]piperazine] | < 1000 | – |

| SMILES | EC50 [1] [nM] | EC50 [2] [nM] |
| --- | --- | --- |
| COc1ncc(-c2ncc(OC)c3c(C(=O)C(=O)N4CCN(C(=O)c5ccccc5)CC4)c[nH]c23)cn1 [Example 117, 1-benzoyl-4-[(4-methoxy-7-(2-methoxy-pyrmdin-5-yl)-6-azaindol-3-yl)-oxoacetyl]piperazine] | < 1000 | – |
| COc1cnc(-c2cnc(-n3cccc3)nc2)c2[nH]cc(C(=O)C(=O)N3CCN(C(=O)c4ccccc4)CC3)c12 [Example 118, 1-benzoyl-4-[(4-methoxy-7-(2-(pyrrol-1-yl)-pyrimidin-5-yl)-6-azaindol-3-yl)-oxoacetyl]piperazine] | < 1000 | – |
| COc1cnc(-c2cccnn2)c2[nH]cc(C(=O)C(=O)N3CCN(C(=O)c4ccccc4)CC3)c12 [Example 120, 1-benzoyl-4-[(4-methoxy-7-(pyridazin-3-yl)-6-azaindol-3-yl)-oxoacetyl]piperazine] | < 1000 | – |
| C[C@@H]1CN(C(=O)c2ccccc2)CCN1C(=O)C(=O)c1c[nH]c2c(-c3cncc(O)n3)nccc12 [Example 121] | < 1000 | – |
| C[C@@H]1CN(C(=O)c2ccccc2)CCN1C(=O)C(=O)c1c[nH]c2c(-c3ccc(O)nc3)nccc12 [Example 122] | < 1000 | – |
| C[C@@H]1CN(C(=O)c2ccccc2)CCN1C(=O)C(=O)c1c[nH]c2c(-c3cccc(O)n3)nccc12 [Example 123] | < 1000 | – |
| C[C@@H]1CN(C(=O)c2ccccc2)CCN1C(=O)C(=O)c1c[nH]c2c(-c3ccc(O)cn3)nccc12 [Example 124] | < 1000 | – |
| O=C(C(=O)N1CCN(C(=O)c2ccccc2)CC1)c1c[nH]c2c(-c3ccncn3)ncc(F)c12 [Example 125] | < 1000 | – |
| C[C@@H]1CN(C(=O)c2ccccc2)CCN1C(=O)C(=O)c1c[nH]c2c(-c3ncco3)ccnc12 [Example 126] | – | < 1000 |
| C[C@@H]1CN(C(=O)c2ccccc2)CCN1C(=O)C(=O)c1c[nH]c2c(-c3cc4ccccc4s3)ccnc12 [Example 127] | – | < 1000 |
| C[C@@H]1CN(C(=O)c2ccccc2)CCN1C(=O)C(=O)c1c[nH]c2c(-c3cccs3)ccnc12 [Example 128] | – | < 1000 |
| C[C@@H]1CN(C(=O)c2ccccc2)CCN1C(=O)C(=O)c1c[nH]c2c(-c3ccsc3)ccnc12 [Example 129] | – | < 1000 |
| Cc1noc(C)c1-c1ccnc2c(C(=O)C(=O)N3CCN(C(=O)c4ccccc4)C[C@H]3C)c[nH]c12 [Example 130] | – | < 1000 |
| O=C(C(=O)N1CCN(C(=O)c2ccccc2)CC1)c1c[nH]c2c(-c3nccs3)ccnc12 [Example 131] | – | < 1000 |
| CC(=O)c1ccc(-c2ccnc3c(C(=O)C(=O)N4CCN(C(=O)c5ccccc5)CC4)c[nH]c23)s1 [Example 132] | – | < 1000 |
| O=Cc1ccc(-c2ccnc3c(C(=O)C(=O)N4CCN(C(=O)c5ccccc5)CC4)c[nH]c23)s1 [Example 133] | – | < 1000 |
| Cc1csc(-c2ccnc3c(C(=O)C(=O)N4CCN(C(=O)c5ccccc5)CC4)c[nH]c23)c1 [Example 134] | – | < 1000 |
| C[C@@H]1CN(C(=O)c2ccccc2)CCN1C(=O)C(=O)c1c[nH]c2c(C(=O)NCc3ccc(C(F)(F)F)cc3)ccnc12 [Example 135, (R)-1-benzoyl-3-methyl-4-[(7-(4-trifluoromethylbenzylarmino)carbonyl-4-azaindol-3-yl)-oxoacetyl]piperazine] | – | < 1000 |
| Cc1csc(NC(=O)c2ccnc3c(C(=O)C(=O)N4CCN(C(=O)c5ccccc5)C[C@H]4C)c[nH]c23)n1 [Example 136, (R)-1-benzoyl-3-methyl-4-[(7-(4-methylthiazol-2-yl)aminocarbonyl-4-azaindol-3-yl)-oxoacetyl]piperazine] | – | < 1000 |
| C[C@@H]1CN(C(=O)c2ccccc2)CCN1C(=O)C(=O)c1c[nH]c2c(C(=O)Nc3nccs3)ccnc12 [Example 137, (R)-1-benzoyl-3-methyl-4-[(7-(thiazol-2-yl)aminocarbonyl-4-azaindol-3-yl)-oxoacetyl]piperazine] | – | < 1000 |
